Measured values as given in patent publication US20250145585A1, “HETEROCYCLIC INHIBITORS OF IGF-1R FOR TREATMENT OF DISEASE” (HORIZON THERAPEUTICS IRELAND DAC, priority 2023, published 2025).

Target: T1, IGF-1R (Homo sapiens, UniProt P08069)
T1 construct: expressed in transfected cells
Test: Example B-2: IGF-1R Assay (PathHunter cell lines, EC80 agonist challenge, chemiluminescent detection)
Type: cell-based
Conditions: PathHunter cells, compound 60 minutes at 37° C., EC80 agonist 3 hours; read-out: IC50, Biological Activity against IGF-1R (Table B2)
Procedure: PathHunter cell lines were expanded from freezer stocks according to standard procedures. Cells were seeded in a total volume of 20 μL into white walled, 384-well microplates and incubated for the appropriate time prior to testing.
Cells are pre-incubated with compound followed by EC80 agonist challenge as follows: • R. 1. Intermediate dilution of sample stocks was performed to generate 5× sample in assay buffer. • 2. 5 μL of 5× sample was added to cells and incubated at 37° C. for 60 minutes. Vehicle concentration was 1%. • 3. 5 IL of 6× EC80 agonist in assay buffer was added to the cells and incubated at room temperature for 3 hours.
Assay signal was generated through a single addition of 12.5 or 15 μL (50% v/v) of PathHunter Detection reagent cocktail for agonist and antagonist assays respectively, followed by a one hour incubation at room temperature. Microplates were read following signal generation with a PerkinElmer Envision™ instrument for chemilumine-scent signal detection.
Compound activity was analyzed using CBIS data analysis suite (ChemInnovation, CA). Percentage inhibition was calculated using the following formula: % Inhibition=100%×(1−(mean RLU of test sample−mean RLU of vehicle control)/(mean RLU of EC80 control−mean RLU of vehicle control)). The activity for representative examples of the invention is shown in the following table, wherein A: IC50≤500 nM; B: 500 nM<IC50≤2 μM; C: 2 μM<IC50≤10 μM; D: IC50>10 μM.

T1 sequence (P08069 31-1367): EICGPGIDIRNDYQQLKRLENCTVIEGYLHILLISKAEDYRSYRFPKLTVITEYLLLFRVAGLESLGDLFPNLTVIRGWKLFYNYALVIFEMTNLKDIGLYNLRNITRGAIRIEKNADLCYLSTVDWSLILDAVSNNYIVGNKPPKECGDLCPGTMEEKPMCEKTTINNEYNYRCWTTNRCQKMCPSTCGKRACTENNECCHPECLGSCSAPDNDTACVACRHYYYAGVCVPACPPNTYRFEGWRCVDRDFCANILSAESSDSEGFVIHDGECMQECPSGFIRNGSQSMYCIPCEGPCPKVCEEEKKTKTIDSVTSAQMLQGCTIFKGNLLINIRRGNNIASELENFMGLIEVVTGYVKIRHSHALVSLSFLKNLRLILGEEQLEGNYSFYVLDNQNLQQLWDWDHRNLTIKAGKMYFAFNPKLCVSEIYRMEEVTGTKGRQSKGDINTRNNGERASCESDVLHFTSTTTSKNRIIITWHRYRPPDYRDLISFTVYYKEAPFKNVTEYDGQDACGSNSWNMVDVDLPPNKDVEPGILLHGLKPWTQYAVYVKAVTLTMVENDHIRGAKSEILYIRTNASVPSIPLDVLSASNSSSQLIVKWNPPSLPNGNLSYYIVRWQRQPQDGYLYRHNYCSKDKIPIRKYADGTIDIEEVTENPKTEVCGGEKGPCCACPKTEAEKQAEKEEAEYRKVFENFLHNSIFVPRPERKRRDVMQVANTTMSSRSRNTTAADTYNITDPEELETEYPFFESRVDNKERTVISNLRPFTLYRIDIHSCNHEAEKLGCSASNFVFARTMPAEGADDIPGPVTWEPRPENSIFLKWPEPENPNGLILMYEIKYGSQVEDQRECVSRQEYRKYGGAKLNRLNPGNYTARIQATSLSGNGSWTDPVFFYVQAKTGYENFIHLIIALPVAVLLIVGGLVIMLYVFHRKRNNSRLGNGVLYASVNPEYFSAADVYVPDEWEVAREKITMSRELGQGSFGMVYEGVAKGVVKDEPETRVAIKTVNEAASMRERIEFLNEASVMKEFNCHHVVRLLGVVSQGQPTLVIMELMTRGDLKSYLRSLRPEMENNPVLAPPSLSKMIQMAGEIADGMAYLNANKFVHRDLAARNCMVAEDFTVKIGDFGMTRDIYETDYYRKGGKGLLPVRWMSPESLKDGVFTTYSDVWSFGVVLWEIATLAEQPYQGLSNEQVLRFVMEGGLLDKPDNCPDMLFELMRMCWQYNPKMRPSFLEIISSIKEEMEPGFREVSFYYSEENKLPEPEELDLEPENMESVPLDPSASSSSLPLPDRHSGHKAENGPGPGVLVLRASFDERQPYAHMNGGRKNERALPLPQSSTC

IC50	Compound
≤ 500 nM	CCOC[C@H](C)Nc1cc(CN2C(=O)N(c3ccc(C4(C(F)(F)F)CC4)cc3)C(=O)C2(C)C)ccn1 [Compound 157, (S)-1-((2-((1-ethoxypropan-2-yl)amino)pyridin-4-yl)methyl)-5,5-dimethyl-3-(4-(1-(trifluoromethyl)cyclopropyl)phenyl) imidazolidine-2,4-dione]
≤ 500 nM	CC1(C)C(=O)N(c2ccc(C3(C(F)(F)F)CC3)cc2)C(=O)N1Cc1ccnc(NCc2cnccn2)c1 [Compound 182, 5,5-dimethyl-1-((2-((pyrazin-2-ylmethyl)amino)pyridin-4-yl)methyl)-3-(4-(1-(trifluoromethyl)cyclopropyl)phenyl) imidazolidine-2,4-dione]
≤ 500 nM	CC(Nc1cc(CN2C(=O)N(c3ccc(C4(C(F)(F)F)CC4)cc3)C(=O)C2(C)C)ccn1)c1cccnc1 (centres unmarked) [Compound 165, 5,5-dimethyl-1-((2-((1-(pyridin-3-yl)ethyl)amino)pyridin-4-yl)methyl)-3-(4-(1-(trifluoromethyl)cyclopropyl)phenyl)imidazolidine-2,4-dione]
≤ 500 nM	CC1(C)CN(C(=O)C2CC2)c2cc(N3C(=O)N(Cc4ccnc5c4CC(=O)N5)C(C)(C)C3=O)ccc21 [Compound 39, 3-(1-(cyclopropanecarbonyl)-3,3-dimethylindolin-6-yl)-5,5-dimethyl-1-((2-oxo-2,3-dihydro-1H-pyrrolo[2,3-b]pyridin-4-yl)methyl)imidazolidine-2,4-dione]
≤ 500 nM	CO[C@H](C)CNc1cc(CN2C(=O)N(c3ccc4c(c3)N(S(C)(=O)=O)CC43CCC3)C(=O)C2(C)C)ccn1 [Compound 239, (R)-1-((2-((2-methoxypropyl)amino)pyridin-4-yl)methyl)-5,5-dimethyl-3-(1′-(methylsulfonyl)spiro[cyclobutane-1,3′-indolin]-6′-yl)imidazolidine-2,4-dione]
≤ 500 nM	CN(C)CC(=O)Nc1cc(N2C(=O)N(Cc3ccnc4c3CC(=O)N4)C(C)(C)C2=O)ccc1OC(F)(F)F [Compound 54, N-(5-(4,4-dimethyl-2,5-dioxo-3-((2-oxo-2,3-dihydro-1H-pyrrolo[2,3-b]pyridin-4-yl)methyl)imidazolidin-1-yl)-2-(trifluoromethoxy)phenyl)-2-(dimethylamino)acetamide]
2000 to 10000 nM	CC(C)Nc1cc(CN2C(=O)N(c3cnc4c(c3)N(C)CC4(C)C)C(=O)C2(C)C)ccn1 [Compound 197, 1-((2-(isopropylamino)pyridin-4-yl)methyl)-5,5-dimethyl-3-(1,3,3-trimethyl-2,3-dihydro-1H-pyrrolo[3,2-b]pyridin-6-yl)imidazolidine-2,4-dione]
2000 to 10000 nM	C[C@@H](Nc1cc(CN2C(=O)N(c3ccc(S(=O)(=O)C(F)(F)F)cc3)C(=O)C2(C)C)ccn1)[C@H]1CCCO1 [Compound 342, 5,5-dimethyl-1-((2-(((R)-1-((R)-tetrahydrofuran-2-yl)ethyl)amino)pyridin-4-yl)methyl)-3-(4-((trifluoromethyl)sulfonyl)phenyl) imidazolidine-2,4-dione]
> 10000 nM	C[C@@H](CC#N)Nc1cc(CN2C(=O)N(c3cc(C(C)(C)C)nn3C)C(=O)C2(C)C)ccn1 [Compound 262, (S)-3-((4-((3-(3-(tert-butyl)-1-methyl-1H-pyrazol-5-yl)-5,5-dimethyl-2,4-dioxoimidazolidin-1-yl)methyl)pyridin-2-yl)amino)butanenitrile]
≤ 500 nM	CC(C)Nc1cc(CN2C(=O)N(c3ccc(C4(C#N)CC4(C)C)cc3)C(=O)C2(C)C)ccn1 (centres unmarked) [Compound 145, 1-(4-(3-((2-(isopropylamino)pyridin-4-yl)methyl)-4,4-dimethyl-2,5-dioxoimidazolidin-1-yl)phenyl)-2,2-dimethylcyclopropane-1-carbonitrile]

Compound	IC50
CC1(C)C(=O)N(c2ccc(C(F)(F)F)c(C#N)c2)C(=O)N1Cc1ccnc2c1CC(=O)N2 [Compound 66, 5-(4,4-dimethyl-2,5-dioxo-3-((2-oxo-2,3-dihydro-1H-pyrrolo[2,3-b]pyridin-4-yl)methyl)imidazolidin-1-yl)-2-(trifluoromethyl)benzonitrile]	> 10000 nM
